PubChem BioAssay AID2060893 (Molecular Pharmacology Branch, DTP, NCI, 2025)

Tested on: K86415-001-R-J1-PDC complex spheroids, viability
Assay: Anticancer human tumor K86415-001-R-J1-PDC patient-derived lung adenocarcinoma cell line growth inhibition [RAS]
Settings: for IC50: curve of first compound; for viability, T/C: stronger effect = lower value
Summary of the method: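 Multi-cell-type spheroids: tumor cells plus HUVEC endothelial cells and mesenchymal stem cells. RAS-pathway inhibitors were combined with targeted agents, each dosed in half-log steps down from clinical Cmax, or from 10 microM when Cmax was unknown.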

[1] = second compound 0.000949 µM, first compound 0.0316 µM
[2] = second compound 0.000949 µM, first compound 0.1 µM
[3] = second compound 0.000949 µM, first compound 0.316 µM
[4] = second compound 0.000949 µM, first compound 1 µM
[5] = second compound 0.000949 µM, first compound 3.16 µM
[6] = second compound 0.000949 µM, first compound 10 µM
[7] = second compound 0.003 µM, first compound 0.0316 µM
[8] = second compound 0.003 µM, first compound 0.1 µM
[9] = second compound 0.003 µM, first compound 0.316 µM
[10] = second compound 0.003 µM, first compound 1 µM
[11] = second compound 0.003 µM, first compound 3.16 µM
[12] = second compound 0.003 µM, first compound 10 µM
[13] = second compound 0.00949 µM, first compound 0.0316 µM
[14] = second compound 0.00949 µM, first compound 0.1 µM
[15] = second compound 0.00949 µM, first compound 0.316 µM
[16] = second compound 0.00949 µM, first compound 1 µM
[17] = second compound 0.00949 µM, first compound 3.16 µM
[18] = second compound 0.00949 µM, first compound 10 µM
[19] = second compound 0.03 µM, first compound 0.0316 µM
[20] = second compound 0.03 µM, first compound 0.1 µM
[21] = second compound 0.03 µM, first compound 0.316 µM
[22] = second compound 0.03 µM, first compound 1 µM
[23] = second compound 0.03 µM, first compound 3.16 µM
[24] = second compound 0.03 µM, first compound 10 µM
[25] = second compound 0.0949 µM, first compound 0.0316 µM
[26] = second compound 0.0949 µM, first compound 0.1 µM
[27] = second compound 0.0949 µM, first compound 0.316 µM
[28] = second compound 0.0949 µM, first compound 1 µM
[29] = second compound 0.0949 µM, first compound 3.16 µM
[30] = second compound 0.0949 µM, first compound 10 µM
[31] = second compound 0.3 µM, first compound 0.0316 µM
[32] = second compound 0.3 µM, first compound 0.1 µM
[33] = second compound 0.3 µM, first compound 0.316 µM
[34] = second compound 0.3 µM, first compound 1 µM
[35] = second compound 0.3 µM, first compound 3.16 µM
[36] = second compound 0.3 µM, first compound 10 µM
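Note: spheroids exposed to agents for seven days before readout.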

CC(=O)OC12COC1CC(O)C1(C)C(=O)C(O)C3=C(C)C(OC(=O)C(O)C(NC(=O)OC(C)(C)C)c4ccccc4)CC(O)(C(OC(=O)c4ccccc4)C21)C3(C)C (centres undefined) + CCn1c(-c2cc(N3CCN(C)CC3)cnc2C(C)OC)c2c3cc(ccc31)-c1csc(n1)CC(NC(=O)C1CC1C)C(=O)N1CCCC(N1)C(=O)OCC(C)(C)C2
IC50 (second compound 0.000949 µM): < 31.6 nM
IC50 (second compound 0.003 µM): < 31.6 nM
IC50 (second compound 0.00949 µM): < 31.6 nM
IC50 (second compound 0.03 µM): < 31.6 nM
IC50 (second compound 0.0949 µM): < 31.6 nM
IC50 (second compound 0.3 µM): < 31.6 nM
viability, T/C [1]: 26.9%
viability, T/C [2]: 21.5%
viability, T/C [3]: 17.2%
viability, T/C [4]: 22.7%
viability, T/C [5]: 25.3%
viability, T/C [6]: 19%
viability, T/C [7]: 19.2%
viability, T/C [8]: 15.6%
viability, T/C [9]: 15.1%
viability, T/C [10]: 16.7%
viability, T/C [11]: 15%
viability, T/C [12]: 12.8%
viability, T/C [13]: 9.53%
viability, T/C [14]: 7.3%
viability, T/C [15]: 7.91%
viability, T/C [16]: 7.79%
viability, T/C [17]: 5.97%
viability, T/C [18]: 6.51%
viability, T/C [19]: 5.56%
viability, T/C [20]: 5.63%
viability, T/C [21]: 4.4%
viability, T/C [22]: 3.98%
viability, T/C [23]: 2.48%
viability, T/C [24]: 2.81%
viability, T/C [25]: 3.04%
viability, T/C [26]: 2.69%
viability, T/C [27]: 2.48%
viability, T/C [28]: 1.97%
viability, T/C [29]: 2.21%
viability, T/C [30]: 2.4%
viability, T/C [31]: 2.05%
viability, T/C [32]: 2.39%
viability, T/C [33]: 1.97%
viability, T/C [34]: 2.03%
viability, T/C [35]: 2.06%
viability, T/C [36]: 1.73%

CCC(CC)c1cc(NC2CCC(N)C2)n2nccc2n1 (centres undefined) + CCn1c(-c2cc(N3CCN(C)CC3)cnc2C(C)OC)c2c3cc(ccc31)-c1csc(n1)CC(NC(=O)C1CC1C)C(=O)N1CCCC(N1)C(=O)OCC(C)(C)C2
IC50 (second compound 0.000949 µM): 1180 nM
IC50 (second compound 0.003 µM): < 31.6 nM
IC50 (second compound 0.00949 µM): < 31.6 nM
IC50 (second compound 0.03 µM): < 31.6 nM
IC50 (second compound 0.0949 µM): < 31.6 nM
IC50 (second compound 0.3 µM): < 31.6 nM
viability, T/C [1]: 46.1%
viability, T/C [2]: 48.5%
viability, T/C [3]: 56.8%
viability, T/C [4]: 79%
viability, T/C [5]: 3.84%
viability, T/C [6]: 4.58%
viability, T/C [7]: 25.1%
viability, T/C [8]: 26.1%
viability, T/C [9]: 27.8%
viability, T/C [10]: 36.2%
viability, T/C [11]: 4.27%
viability, T/C [12]: 4.26%
viability, T/C [13]: 9.9%
viability, T/C [14]: 11.2%
viability, T/C [15]: 12.9%
viability, T/C [16]: 11.8%
viability, T/C [17]: 3.06%
viability, T/C [18]: 3.75%
viability, T/C [19]: 5.14%
viability, T/C [20]: 6.25%
viability, T/C [21]: 7.94%
viability, T/C [22]: 6.31%
viability, T/C [23]: 3.03%
viability, T/C [24]: 3.65%
viability, T/C [25]: 4.23%
viability, T/C [26]: 3.98%
viability, T/C [27]: 3.55%
viability, T/C [28]: 2.72%
viability, T/C [29]: 2.97%
viability, T/C [30]: 3.31%
viability, T/C [31]: 2.9%
viability, T/C [32]: 2.91%
viability, T/C [33]: 3.27%
viability, T/C [34]: 2.5%
viability, T/C [35]: 4.29%
viability, T/C [36]: 3.48%
